According to patent US20240409585A1, “MACROCYCLIC IMMUNOMODULATORS” (priority 2021, published 2024):
Numbered stars: 1 amine (or outer) side, 2 acyl side, 3 side chain; on linkers, the order of the positions; unused ones are H or OH. Bridge positions count the residues as written; N and C are the ends. Square brackets hold non-standard residues; d marks the D form. Peptide text beside a SMILES is read from it. * marks the point of attachment. Tyr(3-NO2) = N[C@@H](Cc1ccc(O)c([N+](=O)[O-])c1)C(=O)O; Phe(4-COOH) = N[C@@H](Cc1ccc(C(=O)O)cc1)C(=O)O; Bip = N[C@@H](Cc1ccc(-c2ccccc2)cc1)C(=O)O; X37 = O=C([C@H](Cc1cn[nH]c1)N[*:1])[*:2]; 3Pal = N[C@@H](Cc1cccnc1)C(=O)O; 4Pal = N[C@@H](Cc1ccncc1)C(=O)O; Cit = NC(=O)NCCC[C@H](N)C(=O)O; Carboxymethyl = O=C(O)C*; NMeA = CN[C@@H](C)C(=O)O; Orn = NCCC[C@H](N)C(=O)O; Dab = NCC[C@H](N)C(=O)O

target: T1, PE-labeled human PD-L1-Ig binding to Jurkat cell line over-expressing human PD-1 (Jurkat-PD-1) (Homo sapiens, UniProt Q15116); experiment: Jurkat-PD-1 Cell Binding High-Content Screening Assay (CBA): Method 1; conditions: Jurkat-hPD-1 cells, PE-labeled PD-L1-Ig 20 nM final; read-out: Jurkat HPDL1 PD1 IC50 (uM) (Method 1)
T1 construct: expressed in transfected cells; host or cells: Jurkat
T1 sequence (Q15116 25-288): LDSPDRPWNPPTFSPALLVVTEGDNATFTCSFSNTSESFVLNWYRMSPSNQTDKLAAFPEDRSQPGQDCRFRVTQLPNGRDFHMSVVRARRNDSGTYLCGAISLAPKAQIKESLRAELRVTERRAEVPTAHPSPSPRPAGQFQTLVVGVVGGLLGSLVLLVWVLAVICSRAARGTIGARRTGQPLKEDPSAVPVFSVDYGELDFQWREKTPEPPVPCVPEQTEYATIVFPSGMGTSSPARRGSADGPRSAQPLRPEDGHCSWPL

| Compound | IC50 |
| --- | --- |
| CC(C)C[C@@H]1NC(=O)[C@H](CCCNC(=N)N)NC(=O)[C@@H](Cc2ccccc2)NC(=O)[C@H](C)N(C)C(=O)[C@H](CCCNC(=N)N)NC(=O)[C@H](Cc2ccc(-c3ccccc3)cc2)NC(=O)[C@H](C(C)C)NC(=O)[C@H](Cc2c[nH]c3ccccc23)NC(=O)[C@H](CC(=O)O)NC(=O)[C@H](Cc2ccc(O)cc2)NC(=O)[C@H](CC(N)=O)NC(=O)CSC[C@@H](C(=O)N[C@@H](C)C(N)=O)NC(=O)[C@H]([C@@H](C)O)NC(=O)[C@H](C(C)C)NC1=O [Compound 1153] ({CH2CO}-NYDWV[Bip]R[NMeA][dF]RLVTCA-NH2; thioether N-14) | 0.19 µM |
| CC(C)C[C@@H]1NC(=O)[C@H](CCCN)NC(=O)[C@@H](CC(C)C)NC(=O)[C@H](C)N(C)C(=O)[C@H](CCCNC(=N)N)NC(=O)[C@H](Cc2ccc(-c3ccccc3)cc2)NC(=O)[C@H](C(C)C)NC(=O)[C@H](Cc2c[nH]c3ccccc23)NC(=O)[C@H](CC(=O)O)NC(=O)[C@H](Cc2ccc(O)c([N+](=O)[O-])c2)NC(=O)[C@H](CC(N)=O)NC(=O)CSC[C@@H](C(=O)N[C@@H](C)C(N)=O)NC(=O)[C@H]([C@@H](C)O)NC(=O)[C@H](C(C)C)NC1=O [Compound 1154] ({CH2CO}-N[Tyr(3-NO2)]DWV[Bip]R[NMeA][dL][Orn]LVTCA-NH2; thioether N-14) | 0.03 µM |
| CC(C)C[C@@H]1NC(=O)[C@H](CCCN)NC(=O)[C@@H](CC(C)C)NC(=O)[C@H](C)N(C)C(=O)[C@H](CCCNC(=N)N)NC(=O)[C@H](Cc2ccc(-c3ccccc3)cc2)NC(=O)[C@H](C(C)C)NC(=O)[C@H](Cc2c[nH]c3ccccc23)NC(=O)[C@H](CC(=O)O)NC(=O)[C@H](Cc2ccc(C(=O)O)cc2)NC(=O)[C@H](Cc2ccccc2)NC(=O)CSC[C@@H](C(=O)N[C@@H](C)C(N)=O)NC(=O)[C@H]([C@@H](C)O)NC(=O)[C@H](C(C)C)NC1=O [Compound 1156] ({CH2CO}-F[Phe(4-COOH)]DWV[Bip]R[NMeA][dL][Orn]LVTCA-NH2; thioether N-14) | 0.03 µM |
| CC(C)C[C@@H]1NC(=O)[C@H](CCN)NC(=O)[C@@H](CC(C)C)NC(=O)[C@H](C)N(C)C(=O)[C@H](CCCNC(=N)N)NC(=O)[C@H](Cc2ccc(-c3ccccc3)cc2)NC(=O)[C@H](C(C)C)NC(=O)[C@H](Cc2c[nH]c3ccccc23)NC(=O)[C@H](CC(=O)O)NC(=O)[C@H](Cc2cnc[nH]2)NC(=O)[C@H](Cc2cccnc2)NC(=O)CSC[C@@H](C(=O)N[C@@H](C)C(N)=O)NC(=O)[C@H]([C@@H](C)O)NC(=O)[C@H](C(C)C)NC1=O [Compound 1157] ({CH2CO}-[3Pal]HDWV[Bip]R[NMeA][dL][Dab]LVTCA-NH2; thioether N-14) | 0.11 µM |
| CC(C)C[C@@H]1NC(=O)[C@H](CCN)NC(=O)[C@@H](CC(C)C)NC(=O)[C@H](C)N(C)C(=O)[C@H](CCCNC(=N)N)NC(=O)[C@H](Cc2ccc(-c3ccccc3)cc2)NC(=O)[C@H](C(C)C)NC(=O)[C@H](Cc2c[nH]c3ccccc23)NC(=O)[C@H](CC(=O)O)NC(=O)[C@H](Cc2ccc(OCC(=O)O)cc2)NC(=O)[C@H](Cc2cccnc2)NC(=O)CSC[C@@H](C(=O)N[C@@H](C)C(N)=O)NC(=O)[C@H]([C@@H](C)O)NC(=O)[C@H](C(C)C)NC1=O [Compound 1158] ({CH2CO}-[3Pal]Y(Carboxymethyl)DWV[Bip]R[NMeA][dL][Dab]LVTCA-NH2; thioether N-14) | 0.03 µM |
| CC(C)C[C@@H]1NC(=O)[C@H](CCCNC(=N)N)NC(=O)[C@@H](Cc2ccccc2)NC(=O)[C@H](C)N(C)C(=O)[C@H](CCCNC(=N)N)NC(=O)[C@H](Cc2ccc(-c3ccccc3)cc2)NC(=O)[C@H](C(C)C)NC(=O)[C@H](Cc2c[nH]c3ccccc23)NC(=O)[C@H](CC(=O)O)NC(=O)[C@H](Cc2ccc(O)cc2)NC(=O)[C@H](Cc2cccnc2)NC(=O)CSC[C@@H](C(=O)N[C@@H](C)C(N)=O)NC(=O)[C@H]([C@@H](C)O)NC(=O)[C@H](C(C)C)NC1=O [Compound 1161] ({CH2CO}-[3Pal]YDWV[Bip]R[NMeA][dF]RLVTCA-NH2; thioether N-14) | 0.11 µM |
| CC(C)C[C@@H]1NC(=O)[C@H](CCCNC(=N)N)NC(=O)[C@@H](Cc2ccccc2)NC(=O)[C@H](C)N(C)C(=O)[C@H](CCCNC(=N)N)NC(=O)[C@H](Cc2ccc(-c3ccccc3)cc2)NC(=O)[C@H](C(C)C)NC(=O)[C@H](Cc2c[nH]c3ccccc23)NC(=O)[C@H](CC(=O)O)NC(=O)[C@H](Cc2ccncc2)NC(=O)[C@H](CC(N)=O)NC(=O)CSC[C@@H](C(=O)N[C@@H](C)C(N)=O)NC(=O)[C@H]([C@@H](C)O)NC(=O)[C@H](C(C)C)NC1=O [Compound 1162] ({CH2CO}-N[4Pal]DWV[Bip]R[NMeA][dF]RLVTCA-NH2; thioether N-14) | 0.22 µM |
| CC(C)C[C@@H]1NC(=O)[C@H](CCN)NC(=O)[C@@H](CC(C)C)NC(=O)[C@H](C)N(C)C(=O)[C@H](CCC(=O)O)NC(=O)[C@H](Cc2ccc(-c3ccccc3)cc2)NC(=O)[C@H](C(C)C)NC(=O)[C@H](Cc2c[nH]c3ccccc23)NC(=O)[C@H](CC(=O)O)NC(=O)[C@H](Cc2ccc(O)cc2)NC(=O)[C@H](Cc2ccccc2)NC(=O)CSC[C@@H](C(=O)N[C@@H](CCC(=O)O)C(N)=O)NC(=O)[C@H]([C@@H](C)O)NC(=O)[C@H](C(C)C)NC1=O [Compound 1164] ({CH2CO}-FYDWV[Bip]E[NMeA][dL][Dab]LVTCE-NH2; thioether N-14) | 0.07 µM |

Now from value to compound:

| IC50 | Compound |
| --- | --- |
| 0.02 µM | CC(C)C[C@@H]1NC(=O)[C@H](CCN)NC(=O)[C@@H](CC(C)C)NC(=O)[C@H](C)N(C)C(=O)[C@H](CCCNC(=N)N)NC(=O)[C@H](Cc2ccc(-c3ccccc3)cc2)NC(=O)[C@H](C(C)C)NC(=O)[C@H](Cc2c[nH]c3ccccc23)NC(=O)[C@H](CC(=O)O)NC(=O)[C@H](Cc2ccc(O)c([N+](=O)[O-])c2)NC(=O)[C@H](Cc2cccnc2)NC(=O)CSC[C@@H](C(=O)N[C@@H](C)C(N)=O)NC(=O)[C@H]([C@@H](C)O)NC(=O)[C@H](C(C)C)NC1=O [Compound 1155] ({CH2CO}-[3Pal][Tyr(3-NO2)]DWV[Bip]R[NMeA][dL][Dab]LVTCA-NH2; thioether N-14) |
| 0.07 µM | CC(C)C[C@@H]1NC(=O)[C@H](CCN)NC(=O)[C@@H](CC(C)C)NC(=O)[C@H](C)N(C)C(=O)[C@H](CCCNC(=N)N)NC(=O)[C@H](Cc2ccc(-c3ccccc3)cc2)NC(=O)[C@H](C(C)C)NC(=O)[C@H](Cc2c[nH]c3ccccc23)NC(=O)[C@H](CC(=O)O)NC(=O)[C@H](Cc2ccc(O)cc2)NC(=O)[C@H](Cc2cn[nH]c2)NC(=O)CSC[C@@H](C(=O)N[C@@H](C)C(N)=O)NC(=O)[C@H]([C@@H](C)O)NC(=O)[C@H](C(C)C)NC1=O [Compound 1159] ({CH2CO}-[X37]YDWV[Bip]R[NMeA][dL][Dab]LVTCA-NH2; thioether N-14) |
| 0.03 µM | CC(C)C[C@@H]1NC(=O)[C@H](CCN)NC(=O)[C@@H](CC(C)C)NC(=O)[C@H](C)N(C)C(=O)[C@H](CCCNC(=N)N)NC(=O)[C@H](Cc2ccc(-c3ccccc3)cc2)NC(=O)[C@H](C(C)C)NC(=O)[C@H](Cc2c[nH]c3ccccc23)NC(=O)[C@H](CC(=O)O)NC(=O)[C@H](Cc2ccc(O)c([N+](=O)[O-])c2)NC(=O)[C@H](CC(N)=O)NC(=O)CSC[C@@H](C(=O)N[C@@H](C)C(N)=O)NC(=O)[C@H]([C@@H](C)O)NC(=O)[C@H](C(C)C)NC1=O [Compound 1160] ({CH2CO}-N[Tyr(3-NO2)]DWV[Bip]R[NMeA][dL][Dab]LVTCA-NH2; thioether N-14) |
| 0.04 µM | CC(C)C[C@@H]1NC(=O)[C@H](CCCN)NC(=O)[C@@H](CC(C)C)NC(=O)[C@H](C)N(C)C(=O)[C@H](CCC(=O)O)NC(=O)[C@H](Cc2ccc(-c3ccccc3)cc2)NC(=O)[C@H](C(C)C)NC(=O)[C@H](Cc2c[nH]c3ccccc23)NC(=O)[C@H](CC(=O)O)NC(=O)[C@H](Cc2ccc(O)cc2)NC(=O)[C@H](Cc2ccccc2)NC(=O)CSC[C@@H](C(=O)N[C@@H](CCC(=O)O)C(N)=O)NC(=O)[C@H]([C@@H](C)O)NC(=O)[C@H](C(C)C)NC1=O [Compound 1163] ({CH2CO}-FYDWV[Bip]E[NMeA][dL][Orn]LVTCE-NH2; thioether N-14) |
| 0.15 µM | CC(C)C[C@@H]1NC(=O)[C@H](CCCN)NC(=O)[C@@H](CC(C)C)NC(=O)[C@H](C)N(C)C(=O)[C@H](CCCNC(=N)N)NC(=O)[C@H](Cc2ccc(-c3ccccc3)cc2)NC(=O)[C@H](C(C)C)NC(=O)[C@H](Cc2c[nH]c3ccccc23)NC(=O)[C@H](CC(=O)O)NC(=O)[C@H](Cc2ccc(O)cc2)NC(=O)[C@H](CC(N)=O)NC(=O)CSC[C@@H](C(=O)N[C@@H](CCC(=O)O)C(N)=O)NC(=O)[C@H]([C@@H](C)O)NC(=O)[C@H](C(C)C)NC1=O [Compound 1165] ({CH2CO}-NYDWV[Bip]R[NMeA][dL][Orn]LVTCE-NH2; thioether N-14) |
| 0.06 µM | CC(C)C[C@@H]1NC(=O)[C@H](CCCNC(=N)N)NC(=O)[C@@H](CC(C)C)NC(=O)[C@H](C)N(C)C(=O)[C@H](CCCNC(N)=O)NC(=O)[C@H](Cc2ccc(-c3ccccc3)cc2)NC(=O)[C@H](C(C)C)NC(=O)[C@H](Cc2c[nH]c3ccccc23)NC(=O)[C@H](CC(=O)O)NC(=O)[C@H](Cc2ccc(O)cc2)NC(=O)[C@H](CC(N)=O)NC(=O)CSC[C@@H](C(=O)N[C@@H](C)C(N)=O)NC(=O)[C@H]([C@@H](C)O)NC(=O)[C@H](C(C)C)NC1=O [Compound 1166] ({CH2CO}-NYDWV[Bip][Cit][NMeA][dL]RLVTCA-NH2; thioether N-14) |
| 0.1 µM | CC(C)C[C@@H]1NC(=O)[C@H](CCCNC(=N)N)NC(=O)[C@@H](Cc2ccccc2)NC(=O)[C@H](C)N(C)C(=O)[C@H](CCCNC(=N)N)NC(=O)[C@H](Cc2ccc(-c3ccccc3)cc2)NC(=O)[C@H](C(C)C)NC(=O)[C@H](Cc2c[nH]c3ccccc23)NC(=O)[C@H](CC(=O)O)NC(=O)[C@H](Cc2ccc(O)c([N+](=O)[O-])c2)NC(=O)[C@H](CC(N)=O)NC(=O)CSC[C@@H](C(=O)N[C@@H](C)C(N)=O)NC(=O)[C@H]([C@@H](C)O)NC(=O)[C@H](C(C)C)NC1=O [Compound 1167] ({CH2CO}-N[Tyr(3-NO2)]DWV[Bip]R[NMeA][dF]RLVTCA-NH2; thioether N-14) |
